Values quoted from earlier work, collected in the PKSmart pharmacokinetics tables (Seal et al. 2025).

Assays:
[1] = Lombardo et al. 2013, J Clin Pharmacol 53:178, doi 10.1177/0091270012440282; details: for Vd / clearance: in vivo, iv; for fraction unbound: plasma
[2] = not given per row; by the article one of three: Lombardo et al. 2013, J Clin Pharmacol 53:178, doi 10.1177/0091270012440282; 'New Drugs at FDA', novel drug approvals for 2021 and 2022 (the article's reference 43); Yap, Li, Chen 2006, J Mol Graph Model 24:383, doi 10.1016; details: human; for Vd / clearance / half-life: in vivo; for fraction unbound: plasma

CC(C)(C)S(=O)(=O)CC(Cc1ccccc1)C(=O)NC(Cc1cnc[nH]1)C(=O)N[C@@H](CC1CCCCC1)[C@@H](O)[C@@H](O)C1CC1 (stereo partly specified)
Vd ([1]; dog): 1.52 L/kg
clearance ([1]; dog): 24.7 mL/min/kg
fraction unbound ([1]; dog): 0.0802
Vd ([1]; monkey): 1.7 L/kg
clearance ([1]; monkey): 20 mL/min/kg
fraction unbound ([1]; monkey): 0.167
Vd ([1]; rat): 4.4 L/kg
clearance ([1]; rat): 119 mL/min/kg
fraction unbound ([1]; rat): 0.053
Vd [2]: 0.77 L/kg
clearance [2]: 11.6 mL/min/kg

CON=C(C(=O)NC1C(=O)N2C(C(=O)[O-])=C(Cn3cc[n+]4ncccc34)CS[C@H]12)c1nsc(N)n1 (stereo partly specified)
Vd ([1]; dog): 0.2 L/kg
clearance ([1]; dog): 3 mL/min/kg
fraction unbound ([1]; dog): 0.9
Vd ([1]; monkey): 0.2 L/kg
clearance ([1]; monkey): 1.9 mL/min/kg
fraction unbound ([1]; monkey): 0.9
Vd ([1]; rat): 0.2 L/kg
clearance ([1]; rat): 9.4 mL/min/kg
fraction unbound ([1]; rat): 0.93
Vd [2]: 0.24 L/kg
clearance [2]: 2.1 mL/min/kg

CN(C)C1C(=O)C(C(N)=O)=C(O)[C@@]2(O)C(=O)C3=C(O)c4c(O)cccc4[C@@](C)(O)[C@H]3[C@H](O)[C@@H]12 (stereo partly specified)
Vd ([1]; dog): 1.01 L/kg
clearance ([1]; dog): 1.47 mL/min/kg
Vd [2]: 1.7 L/kg
clearance [2]: 2 mL/min/kg

[H]/N=C(/N=C(N)N)N(C)C
Vd ([1]; rat): 0.54 L/kg
clearance ([1]; rat): 16.8 mL/min/kg
Vd [2]: 0.64 L/kg
clearance [2]: 7.4 mL/min/kg

O=c1ncnc2[nH][nH]cc1-2
Vd ([1]; dog): 0.16 L/kg
Vd [2]: 0.58 L/kg

CNC(C)C1CCC(N)C(OC2C(N)CC(N)C(OC3OCC(C)(O)C(NC)C3O)C2O)O1 (stereo unspecified)
Vd ([1]; dog): 0.33 L/kg
clearance ([1]; dog): 2.1 mL/min/kg
Vd ([1]; rat): 0.33 L/kg
clearance ([1]; rat): 7.8 mL/min/kg
clearance [2]: 1 mL/min/kg

O=C1C=CC=CC1=C1NC(=C2C=CC=CC2=O)N(c2ccc(C(=O)O)cc2)N1
Vd ([1]; rat): 0.46 L/kg
clearance ([1]; rat): 6.2 mL/min/kg
Vd [2]: 0.2 L/kg
clearance [2]: 0.84 mL/min/kg

CON=C(C(=O)NC1C(=O)N2C(C(=O)O)=C(CSc3nc(=O)c(=O)[nH]n3C)CS[C@H]12)c1csc(N)n1 (stereo partly specified)
Vd ([1]; dog): 0.25 L/kg
clearance ([1]; dog): 3.95 mL/min/kg
fraction unbound ([1]; dog): 0.717
Vd ([1]; monkey): 0.11 L/kg
clearance ([1]; monkey): 0.19 mL/min/kg
fraction unbound ([1]; monkey): 0.0487
Vd ([1]; rat): 1 L/kg
clearance ([1]; rat): 20 mL/min/kg
fraction unbound ([1]; rat): 0.071
Vd [2]: 0.09 L/kg
clearance [2]: 0.245 mL/min/kg

CCCn1c(=O)[nH]c(=O)c2[nH]cnc21
Vd ([1]; dog): 0.64 L/kg
clearance ([1]; dog): 2.4 mL/min/kg
fraction unbound ([1]; dog): 0.61
Vd ([1]; rat): 0.27 L/kg
clearance ([1]; rat): 12 mL/min/kg
fraction unbound ([1]; rat): 0.19
clearance [2]: 4.16 mL/min/kg

COCCOCC(CC1(C(=O)NC2CCC(C(=O)O)CC2)CCCC1)C(=O)O (stereo unspecified)
clearance ([1]; dog): 5.8 mL/min/kg
clearance ([1]; rat): 15 mL/min/kg
fraction unbound ([1]; rat): 0.23
Vd [2]: 0.25 L/kg
clearance [2]: 2.3 mL/min/kg

COc1ccccc1Oc1c(NS(=O)(=O)c2ccc(C(C)C)cn2)nc(-c2ccnc(-c3nn[nH]n3)c2)nc1OCCO
Vd ([1]; monkey): 0.21 L/kg
clearance ([1]; monkey): 15.6 mL/min/kg
Vd ([1]; rat): 0.27 L/kg
clearance ([1]; rat): 4.3 mL/min/kg
clearance [2]: 9.05 mL/min/kg

C[C@@H](O[C@H]1OCCN(Cc2nc(=O)[nH][nH]2)[C@H]1c1ccc(F)cc1)c1cc(C(F)(F)F)cc(C(F)(F)F)c1
Vd ([1]; dog): 1 L/kg
fraction unbound ([1]; dog): 0.0009
Vd ([1]; rat): 3.2 L/kg
fraction unbound ([1]; rat): 0.002
Vd [2]: 0.94 L/kg

NNc1nncc2ccccc12
fraction unbound ([1]; dog): 0.29
Vd ([1]; rat): 2.76 L/kg
clearance ([1]; rat): 139 mL/min/kg
Vd [2]: 1.5 L/kg
clearance [2]: 70.5 mL/min/kg

[2H]C([2H])([2H])C([2H])([2H])C(C)n1ncn(-c2ccc(N3CCN(c4ccc(OC[C@H]5CO[C@](Cn6cncn6)(c6ccc(Cl)cc6Cl)O5)cc4)CC3)cc2)c1=O (stereo partly specified)
Vd ([1]; rat): 5.07 L/kg
clearance ([1]; rat): 9.16 mL/min/kg
fraction unbound ([1]; rat): 0.9
Vd [2]: 7.4 L/kg
clearance [2]: 5.1 mL/min/kg

C/N=C1/CN(O)C(c2ccccc2)=c2cc(Cl)ccc2=N1
Vd ([1]; rat): 1.3 L/kg
clearance ([1]; rat): 7.8 mL/min/kg
fraction unbound ([1]; rat): 0.15
Vd [2]: 0.25 L/kg

COP(=O)(OC)[C@H](O)C(Cl)(Cl)Cl
clearance [2]: 5.67 mL/min/kg

C[C@@H](O)C1C(=O)N2C(C(=O)O)=C(S[C@@H]3CNC(C(=O)N(C)C)C3)[C@H](C)[C@@H]12 (stereo partly specified)
clearance [2]: 3.49 mL/min/kg

O=C(O)C1=C(C[n+]2ccc(CCS(=O)(=O)[O-])cc2)CS[C@@H]2C(NC(=O)C(NC(=O)c3nc[nH]c3C(=O)O)c3ccccc3)C(=O)N12 (stereo partly specified)
Vd ([1]; dog): 0.2 L/kg
clearance ([1]; dog): 0.6 mL/min/kg
fraction unbound ([1]; dog): 0.07
Vd ([1]; monkey): 0.3 L/kg
clearance ([1]; monkey): 3 mL/min/kg
Vd [2]: 0.21 L/kg
clearance [2]: 1.7 mL/min/kg

COc1ccccc1OCCNC[C@@H](O)COc1cccc2[nH]c3ccccc3c12
clearance [2]: 8.7 mL/min/kg

CC(C)[C@@H](C)[C@@]1(C)CC[C@]2(C)[C@H]3CC[C@@H]4[C@@]5(COC[C@@]4(C)[C@@H](OC[C@](C)(N)C(C)(C)C)[C@H](n4ncnc4-c4ccncc4)C5)C3=CC[C@@]2(C)C1C(=O)O (stereo partly specified)
Vd [2]: 10 L/kg
half-life [2]: 1200 min
fraction unbound [2]: 0.01

O=C(NC(C(=O)NC1C(=O)N2C(C(=O)O)C(=C[n+]3ccc(CCS(=O)(=O)[O-])cc3)CSC12)c1ccccc1)c1nc[nH]c1C(=O)O (stereo unspecified)
Vd [2]: 0.21 L/kg
clearance [2]: 1.7 mL/min/kg

COc1ccc2c3c1OC1C(=O)CC[C@@H]4[C@H](C2)N(C)CC[C@@]314 (stereo partly specified)
clearance [2]: 8.82 mL/min/kg

CCOC(=O)Nc1c[n+](N2CCOCC2)no1
clearance [2]: 9.52 mL/min/kg

COc1ccnc(C[S@@+](O)c2nc3cc(OC(F)F)ccc3[n-]2)c1OC
clearance [2]: 2.57 mL/min/kg

CC1(C)S[C@H]2C(NC(=O)C(NC(=O)N3CCNC3=O)c3ccccc3)C(=O)N2C1C(=O)O (stereo partly specified)
clearance [2]: 2.52 mL/min/kg

Cc1ncc([N+](=O)[O-])n1C[C@@H](C)O
clearance [2]: 0.4 mL/min/kg

CN[C@@]1(c2ccccc2Cl)CCCCC1=O
clearance [2]: 16.3 mL/min/kg

NC(Cc1cc(I)c(Oc2ccc(O)c(I)c2)c(I)c1)C(=O)O (stereo unspecified)
clearance [2]: 0.25 mL/min/kg

OC[C@H]1O[C@@H](n2cnc3c2N=CNC[C@@H]3O)CC1O (stereo partly specified)
clearance [2]: 1.68 mL/min/kg

CC(C)NC(=O)COc1cccc(-c2nc(Nc3ccc4[nH]ncc4c3)c3ccccc3n2)c1
Vd [2]: 3.07 L/kg
clearance [2]: 2.73 mL/min/kg
half-life [2]: 1140 min

O=C1CC2(CCCC2)CC(=O)N1CCCCN1CCN(c2ncccn2)CC1
clearance [2]: 28.3 mL/min/kg

NC(=O)c1cc[n+](CC2=C(C(=O)O)N3C(=O)C(NC(=O)C(c4ccccc4)S(=O)(=O)[O-])[C@@H]3SC2)cc1 (stereo partly specified)
clearance [2]: 1.92 mL/min/kg

O[C@@](CCN1CCCC1)(c1ccccc1)C1CCCCC1
clearance [2]: 0.97 mL/min/kg

CCN1CCCC1CNC(=O)c1c(OC)ccc(Br)c1OC (stereo unspecified)
clearance [2]: 1.7 mL/min/kg

NC(=O)c1cc[n+](COC[n+]2ccccc2C=NO)cc1
clearance [2]: 3.2 mL/min/kg

CCOc1cc(N)c(Cl)cc1C(=O)NC[C@H]1CN(Cc2ccc(F)cc2)CCO1
clearance [2]: 16.2 mL/min/kg

CN1C(=O)NC(=O)[C@@](C)(C2=CCCCC2)C1=O
clearance [2]: 3.6 mL/min/kg

CC(C)CC(NC(=O)C(Cc1ccccc1)NC(=O)C(N)Cc1ccccc1)C(=O)NC(CCCCN)C(=O)N1CCC(N)(C(=O)O)CC1 (stereo unspecified)
clearance [2]: 3.97 mL/min/kg
fraction unbound [2]: 0.75

CCOC(=O)C(CCc1ccccc1)NC(C)C(=O)N1Cc2ccccc2CC1C(=O)O (stereo unspecified)
clearance [2]: 26.4 mL/min/kg

CC(=O)Oc1cc(C(F)(F)F)ccc1C(=O)O
clearance [2]: 10.7 mL/min/kg

OC[C@H]1CC[C@@H](n2cnc3c(O)ncnc32)O1
clearance [2]: 15.2 mL/min/kg

O[C@@H](c1cc(C(F)(F)F)nc2c(C(F)(F)F)cccc12)[C@@H]1CCCCN1
clearance [2]: 0.41 mL/min/kg

CCCCN(CCCC)C[C@H](O)c1cc(Cl)cc2c1-c1ccc(Cl)cc1/C2=C/c1ccc(Cl)cc1
clearance [2]: 3.57 mL/min/kg

COCCCOc1ccnc(C[S@@+](O)c2nc3ccccc3[n-]2)c1C
clearance [2]: 6 mL/min/kg

C=C1C[C@@H]2C(CC[C@]3(C)C(=O)CC[C@@H]23)[C@]2(C)C=CC(=O)C=C12 (stereo partly specified)
clearance [2]: 145 mL/min/kg

CON=C(C(=O)NC1C(=O)N2C(C(=O)[O-])=C(C[N+]34CCC(C(N)=O)(CC3)CC4)CS[C@H]12)c1nsc(N)n1 (stereo partly specified)
clearance [2]: 2.15 mL/min/kg

Nc1nnc(-c2cccc(Cl)c2Cl)c(N)n1
clearance [2]: 0.51 mL/min/kg

C[C@H](CN1CCN(CCOCCO)CC1)CN1c2ccccc2Sc2ccccc21
clearance [2]: 17.5 mL/min/kg

CNS(=O)(=O)CCC1CCC2[N]CC(C3CCN(C)CC3)C2C1 (stereo unspecified)
clearance [2]: 6.35 mL/min/kg

CC(C)NC[C@@H](O)COc1ccc(COCCOC(C)C)cc1
clearance [2]: 3.55 mL/min/kg

NC(C(=O)NC1C(=O)N2C(C(=O)O)=C(Cl)CS[C@H]12)c1ccccc1 (stereo partly specified)
clearance [2]: 6.1 mL/min/kg

COCC1=C(C(=O)O)N2C(=O)C(=NC(=O)C(NOC)c3csc(N)n3)[C@H]2SC1 (stereo partly specified)
clearance [2]: 2.38 mL/min/kg

CCN1CCC[C@@H]1CNC(=O)c1cc(S(=O)(=O)CC)c(N)cc1OC
clearance [2]: 7.8 mL/min/kg

CN[C@H]1CCc2[nH]c3ccc(C(N)=O)cc3c2C1
clearance [2]: 3.09 mL/min/kg

CNC[C@@H](O)c1cccc(O)c1
clearance [2]: 29.9 mL/min/kg

CCC[C@H](C)[C@@]1(CC)C(=O)N=C(S)NC1=O
clearance [2]: 3.02 mL/min/kg
